Experimental data taken from patent US10167262B2, “Herbicidal substituted 3-arylpyrazoles” (FMC CORPORATION, priority 2014, dated 2019).

How the values were obtained:
Test in all cases: Test E pre-/postemergence greenhouse test, plant response rating 0-100
Type in all cases: in vivo
[1] = test system: Brazilian crabgrass (Digitaria horizontalis); details: Digitaria horizontalis, post-emergence, Postemergence, scale 0 to 100, read-out: Plant response rating, Crabgrass, Brazil
Outline: (§1)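 Ratings (0 no effect to 100 complete control) came from visual comparison with untreated controls 14 to 21 days after treatment. Compounds in a surfactant-containing non-phytotoxic solvent were applied preemergence to seeded silt loam and postemergence to plants at the 1- to 4-leaf stage.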

[2] = test system: arrowleaf sida (Sida rhombifolia); details: scale 0 to 100
Outline: as §1

[3] = test system: barnyardgrass (Echinochloa crus-galli); details: Echinochloa crus-galli, post-emergence, Postemergence, scale 0 to 100
Outline: as §1

[4] = test system: corn (Zea mays); details: scale 0 to 100
Outline: as §1

[5] = test system: fall panicum (Panicum dichotomiflorum); details: Panicum dichotomiflorum, post-emergence, Postemergence, scale 0 to 100
Outline: as §1

[6] = test system: hairy beggarticks (Bidens pilosa); details: Preemergence, scale 0 to 100
Outline: as §1

[7] = test system: palmer pigweed (Amaranthus palmeri); details: scale 0 to 100; for Pigweed, Palmer plant response rating: Preemergence
Outline: as §1

[8] = test system: sandbur (southern sandbur, Cenchrus echinatus); details: Cenchrus echinatus, post-emergence, Postemergence, scale 0 to 100
Outline: as §1

[9] = test system: soybean (Glycine max); details: scale 0 to 100; for Soybean plant response rating: Preemergence
Outline: as §1

[10] = test system: waterhemp (common waterhemp, Amaranthus rudis); details: scale 0 to 100; for Waterhemp plant response rating: Preemergence
Outline: as §1

[11] = test system: wild poinsettia (Euphorbia heterophylla); details: scale 0 to 100; for Poinsettia, Wild plant response rating: Preemergence
Outline: as §1

Compound: Cn1cc(C(=O)c2ccccc2)c(-c2cc(Cl)cc(Cl)c2)n1 [Compound 54, [3-(3,5-dichlorophenyl)-1-methyl-1H-pyrazol-4-yl]phenylmethanone]
- pest or weed control at 16 g/ha ([1]; 16 g ai/ha): 0%
- pest or weed control at 31 g/ha ([1]; 31 g ai/ha): 0%
- pest or weed control at 62 g/ha ([1]; 62 g ai/ha): 0%
- pest or weed control at 125 g/ha ([1]; 125 g ai/ha): 0%
- pest or weed control at 250 g/ha ([1]; 250 g ai/ha): 0%
- Arrowleaf Sida plant response rating ([2]; Preemergence, 125 g ai/ha): 43
- Arrowleaf Sida plant response rating ([2]; Preemergence, 250 g ai/ha): 80
- pest or weed control at 16 g/ha ([2]; Sida rhombifolia, post-emergence, Postemergence, 16 g ai/ha): 30%
- pest or weed control at 31 g/ha ([2]; Sida rhombifolia, post-emergence, Postemergence, 31 g ai/ha): 50%
- pest or weed control at 62 g/ha ([2]; Sida rhombifolia, post-emergence, Postemergence, 62 g ai/ha): 50%
- pest or weed control at 125 g/ha ([2]; Sida rhombifolia, post-emergence, Postemergence, 125 g ai/ha): 65%
- pest or weed control at 250 g/ha ([2]; Sida rhombifolia, post-emergence, Postemergence, 250 g ai/ha): 75%
- pest or weed control at 1000 g/ha ([2]; Sida rhombifolia, pre-emergence, Preemergence, 1000 g ai/ha): 100%
- pest or weed control at 16 g/ha ([3]; 16 g ai/ha): 0%
- pest or weed control at 31 g/ha ([3]; 31 g ai/ha): 0%
- pest or weed control at 62 g/ha ([3]; 62 g ai/ha): 0%
- pest or weed control at 125 g/ha ([3]; 125 g ai/ha): 0%
- pest or weed control at 250 g/ha ([3]; 250 g ai/ha): 0%
- Corn plant response rating ([4]; Preemergence, 125 g ai/ha): 0
- Corn plant response rating ([4]; Preemergence, 250 g ai/ha): 0
- Corn plant response rating (crop injury, 0 = no effect, 100 = complete kill) at 16 g/ha ([4]; Zea mays, post-emergence, Postemergence, 16 g ai/ha): 0%
- Corn plant response rating (crop injury, 0 = no effect, 100 = complete kill) at 31 g/ha ([4]; Zea mays, post-emergence, Postemergence, 31 g ai/ha): 0%
- Corn plant response rating (crop injury, 0 = no effect, 100 = complete kill) at 62 g/ha ([4]; Zea mays, post-emergence, Postemergence, 62 g ai/ha): 0%
- Corn plant response rating (crop injury, 0 = no effect, 100 = complete kill) at 125 g/ha ([4]; Zea mays, post-emergence, Postemergence, 125 g ai/ha): 0%
- Corn plant response rating (crop injury, 0 = no effect, 100 = complete kill) at 250 g/ha ([4]; Zea mays, post-emergence, Postemergence, 250 g ai/ha): 0%
- Corn plant response rating (crop injury, 0 = no effect, 100 = complete kill) at 1000 g/ha ([4]; Zea mays, pre-emergence, Preemergence, 1000 g ai/ha): 0%
- pest or weed control at 31 g/ha ([5]; 31 g ai/ha): 0%
- pest or weed control at 62 g/ha ([5]; 62 g ai/ha): 0%
- pest or weed control at 125 g/ha ([5]; 125 g ai/ha): 0%
- pest or weed control at 250 g/ha ([5]; 250 g ai/ha): 0%
- pest or weed control at 1000 g/ha ([6]; Bidens pilosa, pre-emergence, 1000 g ai/ha): 90%
- Beggarticks plant response rating ([6]; 125 g ai/ha): 0
- Beggarticks plant response rating ([6]; 250 g ai/ha): 23
- pest or weed control at 31 g/ha ([7]; Amaranthus palmeri, post-emergence, Postemergence, 31 g ai/ha): 40%
- pest or weed control at 62 g/ha ([7]; Amaranthus palmeri, post-emergence, Postemergence, 62 g ai/ha): 60%
- pest or weed control at 125 g/ha ([7]; Amaranthus palmeri, post-emergence, Postemergence, 125 g ai/ha): 75%
- pest or weed control at 250 g/ha ([7]; Amaranthus palmeri, post-emergence, Postemergence, 250 g ai/ha): 95%
- Pigweed, Palmer plant response rating ([7]; 125 g ai/ha): 86
- Pigweed, Palmer plant response rating ([7]; 250 g ai/ha): 95
- pest or weed control at 31 g/ha ([8]; 31 g ai/ha): 0%
- pest or weed control at 62 g/ha ([8]; 62 g ai/ha): 0%
- pest or weed control at 125 g/ha ([8]; 125 g ai/ha): 0%
- pest or weed control at 250 g/ha ([8]; 250 g ai/ha): 0%
- plant injury at 31 g/ha ([9]; Glycine max, post-emergence, Postemergence, 31 g ai/ha): 0%
- plant injury at 62 g/ha ([9]; Glycine max, post-emergence, Postemergence, 62 g ai/ha): 0%
- plant injury at 125 g/ha ([9]; Glycine max, post-emergence, Postemergence, 125 g ai/ha): 0%
- plant injury at 250 g/ha ([9]; Glycine max, post-emergence, Postemergence, 250 g ai/ha): 0%
- Soybean plant response rating ([9]; 125 g ai/ha): 0
- Soybean plant response rating ([9]; 250 g ai/ha): 12
- pest or weed control at 62 g/ha ([10]; Amaranthus tuberculatus, post-emergence, Postemergence, 62 g ai/ha): 60%
- pest or weed control at 125 g/ha ([10]; Amaranthus tuberculatus, post-emergence, Postemergence, 125 g ai/ha): 70%
- pest or weed control at 250 g/ha ([10]; Amaranthus tuberculatus, post-emergence, Postemergence, 250 g ai/ha): 95%
- Waterhemp plant response rating ([10]; 125 g ai/ha): 96
- Waterhemp plant response rating ([10]; 250 g ai/ha): 99
- pest or weed control at 31 g/ha ([11]; Euphorbia heterophylla, post-emergence, Postemergence, 31 g ai/ha, read-out: Plant response rating, Poinsettia, Wild): 0%
- pest or weed control at 62 g/ha ([11]; Euphorbia heterophylla, post-emergence, Postemergence, 62 g ai/ha, read-out: Plant response rating, Poinsettia, Wild): 0%
- pest or weed control at 125 g/ha ([11]; Euphorbia heterophylla, post-emergence, Postemergence, 125 g ai/ha, read-out: Plant response rating, Poinsettia, Wild): 0%
- pest or weed control at 250 g/ha ([11]; Euphorbia heterophylla, post-emergence, Postemergence, 250 g ai/ha, read-out: Plant response rating, Poinsettia, Wild): 0%
- Poinsettia, Wild plant response rating ([11]; 125 g ai/ha): 80
- Poinsettia, Wild plant response rating ([11]; 250 g ai/ha): 23
